How the values were obtained:
[1] = biological target: T1, wild type AXL (wtAXL) receptor tyrosine kinase (Homo sapiens, UniProt P30530); test: NIH-3T3-AXL cellular tyrosine kinase assay (inhibition of AXL phosphorylation); format: cell-based; details: AXL phosphorylation in NIH-3T3-AXL (clone 22) cells, serum-depleted, 2 h with compound, immunoprecipitation / anti-phosphotyrosine blot
T1 construct: WtAXL cDNA was cloned into vector pLXSN(ESK) and transfected into Phoenix E packaging cells; expressed in transfected cells; host or cells: NIH3T3 N7 mouse fibroblasts, retrovirally infected (clone 22)
T1 sequence (P30530 26-894): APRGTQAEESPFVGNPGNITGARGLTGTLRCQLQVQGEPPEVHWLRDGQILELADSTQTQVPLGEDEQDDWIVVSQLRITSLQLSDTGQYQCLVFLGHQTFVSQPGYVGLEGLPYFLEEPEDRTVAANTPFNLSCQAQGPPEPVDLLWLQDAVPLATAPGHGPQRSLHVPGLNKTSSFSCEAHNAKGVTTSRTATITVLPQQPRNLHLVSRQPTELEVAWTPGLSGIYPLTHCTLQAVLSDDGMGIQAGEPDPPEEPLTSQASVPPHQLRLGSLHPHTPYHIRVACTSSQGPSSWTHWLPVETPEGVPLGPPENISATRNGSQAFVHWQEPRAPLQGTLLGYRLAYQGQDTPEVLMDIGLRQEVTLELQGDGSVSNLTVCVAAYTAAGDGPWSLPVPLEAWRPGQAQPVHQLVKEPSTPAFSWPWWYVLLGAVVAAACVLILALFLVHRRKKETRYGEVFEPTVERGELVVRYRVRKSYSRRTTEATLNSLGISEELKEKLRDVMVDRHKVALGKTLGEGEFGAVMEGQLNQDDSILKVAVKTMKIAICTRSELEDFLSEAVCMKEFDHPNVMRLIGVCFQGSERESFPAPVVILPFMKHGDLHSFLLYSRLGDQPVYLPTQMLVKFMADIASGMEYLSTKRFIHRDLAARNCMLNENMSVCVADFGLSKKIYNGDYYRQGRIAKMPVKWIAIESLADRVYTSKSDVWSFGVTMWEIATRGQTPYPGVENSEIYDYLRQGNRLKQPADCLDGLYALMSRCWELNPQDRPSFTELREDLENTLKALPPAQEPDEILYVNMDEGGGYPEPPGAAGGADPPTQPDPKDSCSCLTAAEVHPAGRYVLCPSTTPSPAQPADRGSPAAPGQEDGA
In short: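 NIH3T3 clones stably expressing human wtAXL (puromycin-selected) were exposed to serially diluted compounds for 2 h. AXL was immunoprecipitated from lysates with anti-AXL antibody, and phosphorylation detected by anti-phosphotyrosine (4G10) western blot with ECL.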

IC50 [1]	melting point	Structure (SMILES)
> 10000 nM	176 to 177 °C	COc1cc2nccc(Oc3ccc(NS(=O)(=O)c4ccc(Br)cc4OC(F)(F)F)cc3OC)c2cc1OC [Example A148, 4-Bromo-N-[4-(6,7-dimethoxy-quinolin-4-yloxy)-3-methoxy-phenyl]-2-trifluoromethoxy-benzenesulfonamide]
> 3000 nM	119 to 122 °C	COc1cc2nccc(Oc3ccc(NS(=O)(=O)c4ccc5c(c4)CC(=O)N5C)cc3)c2cc1OC [Example A85, 1-Methyl-2-oxo-2,3-dihydro-1H-indole-5-sulfonic acid [4-(6,7-dimethoxy-quinolin-4-yloxy)-phenyl]-amide]
323 nM	131 to 132 °C	COc1cc2c(Oc3ccc(NS(=O)(=O)c4ccccc4C#N)cc3F)ccnc2cc1OCCCN1CCCC(C)C1 (centres unmarked) [Example D31, 2-Cyano-N-(3-fluoro-4-{6-methoxy-7-[3-(3-methyl-piperidin-1-yl)-propoxy]-quinolin-4-yloxy}-phenyl)-benzenesulfonamide]
> 10000 nM	238 to 240 °C	Cc1cc(Oc2ccc(NS(=O)(=O)c3cc(Cl)cc(Cl)c3)cc2)c2cc(F)ccc2n1 [Example B10, 3,5-Dichloro-N-[4-(6-fluoro-2-methyl-quinolin-4-yloxy)-phenyl]-benzenesulfonamide]
8000 nM	164 to 166 °C	Cc1cc(Oc2ccc(NS(=O)(=O)c3ccc(-c4cnco4)s3)cc2)c2cc(F)ccc2n1 [Example B19, 5-Oxazol-5-yl-thiophene-2-sulfonic acid [4-(6-fluoro-2-methyl-quinolin-4-yloxy)-phenyl]-amide]
> 10000 nM	108 to 110 °C	COc1cc2nccc(Oc3ccc(NS(=O)(=O)c4cccc(-c5ccccc5)c4)cc3OC)c2cc1OC [Example A138, Biphenyl-3-sulfonic acid [4-(6,7-dimethoxy-quinolin-4-yloxy)-3-methoxy-phenyl]-amide]
350 nM	105 to 107 °C	COc1cc2c(Oc3ccc(NS(=O)(=O)c4cccc(-c5ccccc5)c4)c(C)c3)ccnc2cc1OCCN1CCOCC1 [Example D07, Biphenyl-3-sulfonic acid {4-[6-methoxy-7-(2-morpholin-4-yl-ethoxy)-quinolin-4-yloxy]-2-methyl-phenyl}-amide]
4730 nM	244 to 245 °C	COc1cc2nccc(Oc3ccc(NS(=O)(=O)c4cccc(C)c4)c(F)c3)c2cc1OC [Example A26, N-[4-(6,7-Dimethoxy-quinolin-4-yloxy)-2-fluoro-phenyl]-3-methyl-benzenesulfonamide]
> 10000 nM	219 to 220 °C	Cc1cc(Oc2ccc(NS(=O)(=O)c3cccc(-c4ncccn4)c3)c(F)c2)c2cccc(C(F)(F)F)c2n1 [Example C16, N-[2-Fluoro-4-(2-methyl-8-trifluoromethyl-quinolin-4-yloxy)-phenyl]-3-pyrimidin-2-yl-benzenesulfonamide]
> 10000 nM	243 to 245 °C	COc1cc2nccc(Oc3ccc(NS(=O)(=O)c4cc(F)cc(F)c4)c(F)c3)c2cc1OC [Example A38, N-[4-(6,7-Dimethoxy-quinolin-4-yloxy)-2-fluoro-phenyl]-3,5-difluoro-benzenesulfonamide]
> 1000 nM	218 to 220 °C	COc1cc2nccc(Oc3ccc(NS(=O)(=O)c4ccc(Cl)cc4F)cc3)c2cc1OC [Example A134, 4-Chloro-N-[4-(6,7-dimethoxy-quinolin-4-yloxy)-phenyl]-2-fluoro-benzenesulfonamide]
> 3000 nM	103 to 105 °C	COc1cc2nccc(Oc3ccc(NS(=O)(=O)c4cccc(-c5ncccn5)c4)c(C)c3)c2cc1OC [Example A93, N-[4-(6,7-Dimethoxy-quinolin-4-yloxy)-2-methyl-phenyl]-3-pyrimidin-2-yl-benzenesulfonamide]
470 nM	222 to 223 °C	COc1cc2nccc(Oc3ccc(NS(=O)(=O)c4ccccc4OC(F)(F)F)cc3)c2cc1OC [Example A114, N-[4-(6,7-Dimethoxy-quinolin-4-yloxy)-phenyl]-2-trifluoromethoxy-benzenesulfonamide]
> 10000 nM	181 to 183 °C	Cc1cc(Oc2ccc(NS(=O)(=O)c3cc(Cl)cc(Cl)c3)c(F)c2)c2cccc(C(F)(F)F)c2n1 [Example C01, 3,5-Dichloro-N-[2-fluoro-4-(2-methyl-8-trifluoromethyl-quinolin-4-yloxy)-phenyl]-benzenesulfonamide]
> 3000 nM	227 to 229 °C	COc1cc2nccc(Oc3ccc(NS(=O)(=O)c4ccc(Br)cc4OC(F)(F)F)c(F)c3)c2cc1OC [Example A147, 4-Bromo-N-[4-(6,7-dimethoxy-quinolin-4-yloxy)-2-fluoro-phenyl]-2-trifluoromethoxy-benzenesulfonamide]
29 nM	200 to 203 °C	COc1cc2c(Oc3ccc(NS(=O)(=O)c4c(F)cccc4F)cc3F)ccnc2cc1OCCCN1CCC(C)CC1 [Example D20, 2,6-Difluoro-N-(3-fluoro-4-{6-methoxy-7-[3-(4-methyl-piperidin-1-yl)-propoxy]-quinolin-4-yloxy}-phenyl)-benzenesulfonamide]
800 nM	231 to 232 °C	COc1cc2nccc(Oc3ccc(NS(=O)(=O)c4ccc(Br)c(Cl)c4)c(F)c3)c2cc1OC [Example A60, 4-Bromo-3-chloro-N-[4-(6,7-dimethoxy-quinolin-4-yloxy)-2-fluoro-phenyl]-benzenesulfonamide]
> 10000 nM	232 to 234 °C	Cc1cc(Oc2ccc(NS(=O)(=O)c3cccc4ccccc34)c(F)c2)c2cccc(C(F)(F)F)c2n1 [Example C04, Naphthalene-1-sulfonic acid [2-fluoro-4-(2-methyl-8-trifluoromethyl-quinolin-4-yloxy)-phenyl]-amide]
271 nM	181 to 183 °C	COc1cc2c(Oc3ccc(NS(=O)(=O)c4ccccc4OC(F)(F)F)cc3F)ccnc2cc1OCCCNC(=O)OC(C)(C)C [Example D16, (3-{4-[2-Fluoro-4-(2-trifluoromethoxy-benzenesulfonylamino)-phenoxy]-6-methoxy-quinolin-7-yloxy}-propyl)-carbamic acid tert-butyl ester]
2400 nM	255 to 257 °C	COc1cc2nccc(Oc3ccc(NS(=O)(=O)c4cccc(Br)c4)c(F)c3)c2cc1OC [Example A24, 3-Bromo-N-[4-(6,7-dimethoxy-quinolin-4-yloxy)-2-fluoro-phenyl]-benzenesulfonamide]
> 1000 nM	189 to 191 °C	COc1cc2c(Oc3ccc(NS(=O)(=O)c4ccc(F)cc4F)cc3F)ccnc2cc1OCCN1CCOCC1 [Example D28, 2,4-Difluoro-N-{3-fluoro-4-[6-methoxy-7-(2-morpholin-4-yl-ethoxy)-quinolin-4-yloxy]-phenyl}-benzenesulfonamide]
2500 nM	186 to 188 °C	COc1cc2c(Oc3ccc(NS(=O)(=O)c4ccccc4OC(F)(F)F)c(C)c3)ccnc2cc1OCCN1CCOCC1 [Example D08, N-{4-[6-Methoxy-7-(2-morpholin-4-yl-ethoxy)-quinolin-4-yloxy]-2-methyl-phenyl}-2-trifluoromethoxy-benzenesulfonamide]

Reference: patent US9206130B2, “Quinoline derivatives as AXL kinase inhibitors” (Max-Planck-Gesellschaft zur Förderung der Wissenschaften …, priority 2008, dated 2015)
